# Earlier results in patent US20100286262A1, “PTGS2 HAPLOTYPES” (priority 2007, published 2010).
# Like-named read-outs stand apart in the source and are kept apart here.
# Experiments:
# [1] = adjuvant setting; cited from earlier work
# [2] = system: colorectal cancer (CRC) risk; settings: cited from earlier work
SMILES,Cardiotoxicity [1],"RR of CRC with aspirin use ([2]; cancers with weak or absent COX-2 expression, 0.73-1.26)","RR of CRC with aspirin use ([2]; tumours overexpressing COX-2, 0.52-0.78)"
O=c1[nH]cc(F)c(=O)[nH]1 [5-fluorouracil],2-4%,–,–
CC(=O)Oc1ccccc1C(=O)O [aspirin],–,0.96,0.64
